Source: ChEMBL document CHEMBL4831545, “Hormesis Effect of Berberine against Klebsiella pneumoniae Is Mediated by Up-Regulation of the Efflux Pump KmrA” (J Nat Prod, 2021)
Calls of active or inactive are those of the source. The calls are words filed in the database; no cut-off is given here.

Tests used:
[1] = tested on: Klebsiella pneumoniae; test: Hormesis activity against Klebsiella pneumoniae deficient in KmrA gene expression assessed as increase in antibiotic MIC by measuring meropenem MIC at 3 ug/ml incubated for 12 hrs by OD600 based analysis (reference value: 0.39625 ug/ml); format: ADME, organism-based; settings: in vivo, dose 3 µg/ml
[2] = tested on: Klebsiella pneumoniae; test: Hormesis activity against overnight compound-treated Klebsiella pneumoniae assessed as increase in antibiotic MIC by measuring tetracycline MIC at 3 ug/ml incubated for 12 hrs by OD600 based analysis (reference value: 6 ug/ml); format: ADME, organism-based; settings: in vivo, dose 3 µg/ml
[3] = tested on: Enterobacter cloacae; test: Hormesis activity against overnight compound-treated Enterobacter cloacae assessed as increase in antibiotic MIC by measuring rifampicin MIC at 3 ug/ml incubated for 12 hrs by OD600 based analysis (reference value: 25 ug/ml); format: ADME, organism-based; settings: in vivo, dose 3 µg/ml
[4] = tested on: Klebsiella pneumoniae; test: Hormesis activity against overnight compound-treated Klebsiella pneumoniae deficient in KmrA gene expression assessed as increase in antibiotic MIC by measuring ciprofloxacin MIC at 3 ug/ml incubated for 12 hrs by OD600 based analysis (reference value: 0.0390625 ug/ml); format: ADME, organism-based; settings: in vivo, dose 3 µg/ml
[5] = tested on: Acinetobacter baumannii; test: Hormesis activity against Acinetobacter baumannii assessed as increase in antibiotic MIC by measuring ampicillin MIC at 3 ug/ml incubated for 12 hrs by OD600 based analysis (reference value: 100 ug/ml); format: ADME, organism-based; settings: in vivo, dose 3 µg/ml
[6] = tested on: Klebsiella pneumoniae; test: Hormesis activity against Klebsiella pneumonia assessed as promotion of bacterial growth by measuring increase in final OD600 at 3 ug/ml measured for 24 hrs in presence of 2 ug/ml tetracycline by OD600 based analysis; format: organism-based; settings: in vivo, at 3 µg/mL
[7] = tested on: Klebsiella pneumoniae; test: Hormesis activity against Klebsiella pneumonia assessed as promotion of bacterial growth by measuring prolonged logarithmic growth phase at 3 to 6 ug/ml measured from 840 to 1440 mins by OD600 based analysis; format: organism-based; settings: in vivo, dose lower 3 µg/ml, time lower 840 min, dose upper 6 µg/ml, time upper 1440 min
[8] = tested on: Acinetobacter baumannii; test: Hormesis activity against overnight-compound treated Acinetobacter baumannii assessed as increase in antibiotic MIC by measuring rifampicin MIC at 3 ug/ml incubated for 12 hrs by OD600 based analysis (reference value: 1.5625 ug/ml); format: ADME, organism-based; settings: in vivo, dose 3 µg/ml
[9] = tested on: Acinetobacter baumannii; test: Hormesis activity against Acinetobacter baumannii assessed as increase in antibiotic MIC by measuring chloramphenicol MIC at 3 ug/ml incubated for 12 hrs by OD600 based analysis (reference value: 6.25 ug/ml); format: ADME, organism-based; settings: in vivo, dose 3 µg/ml
[10] = tested on: Klebsiella pneumoniae; test: Hormesis activity against overnight compound-treated Klebsiella pneumoniae deficient in KmrA gene expression assessed as increase in antibiotic MIC by measuring streptomycin MIC at 3 ug/ml incubated for 12 hrs by OD600 based analysis (reference value: 0.78125 ug/ml); format: ADME, organism-based; settings: in vivo, dose 3 µg/ml
[11] = tested on: Enterobacter cloacae; test: Hormesis activity against overnight compound-treated Enterobacter cloacae assessed as increase in antibiotic MIC by measuring azithromycin MIC at 3 ug/ml incubated for 12 hrs by OD600 based analysis (reference value: 6.25 ug/ml); format: ADME, organism-based; settings: in vivo, dose 3 µg/ml
[12] = tested on: Acinetobacter baumannii; test: Hormesis activity against Acinetobacter baumannii assessed as increase in antibiotic MIC by measuring ciprofloxacin MIC at 3 ug/ml incubated for 12 hrs by OD600 based analysis (reference value: 0.3125 ug/ml); format: ADME, organism-based; settings: in vivo, dose 3 µg/ml
[13] = tested on: Acinetobacter baumannii; test: Hormesis activity against Acinetobacter baumannii assessed as increase in antibiotic MIC by measuring cefotaxime MIC at 3 ug/ml incubated for 12 hrs by OD600 based analysis (reference value: 12.5 ug/ml); format: ADME, organism-based; settings: in vivo, dose 3 µg/ml
[14] = tested on: Acinetobacter baumannii; test: Hormesis activity against Acinetobacter baumannii assessed as promotion of bacterial growth by measuring prolonged logarithmic growth phase at 3 to 50 ug/ml measured for 24 hrs by OD600 based analysis; format: organism-based; settings: in vivo, dose 3-50 µg/ml
[15] = tested on: Klebsiella pneumoniae; test: Hormesis activity against overnight compound-treated Klebsiella pneumoniae assessed as increase in antibiotic MIC by measuring meropenem MIC at 3 ug/ml incubated for 12 hrs by OD600 based analysis (reference value: 0.39625 ug/ml); format: ADME, organism-based; settings: in vivo, dose 3 µg/ml
[16] = tested on: Klebsiella pneumoniae; test: Hormesis activity against overnight compound-treated Klebsiella pneumoniae deficient in KmrA gene expression assessed as increase in antibiotic MIC by measuring hygromycinMIC at 3 ug/ml incubated for 12 hrs by OD600 based analysis (reference value: 12.5 ug/ml); format: ADME, organism-based; settings: in vivo, dose 3 µg/ml
[17] = tested on: Klebsiella pneumoniae; test: Hormesis activity against overnight compound-treated Klebsiella pneumoniae assessed as increase in antibiotic MIC by measuring rifampicin MIC at 3 ug/ml incubated for 12 hrs by OD600 based analysis (reference value: 25 ug/ml); format: ADME, organism-based; settings: in vivo, dose 3 µg/ml
[18] = tested on: Acinetobacter baumannii; test: Hormesis activity against Acinetobacter baumannii assessed as promotion of bacterial growth at 3 to 50 ug/ml measured for 24 hrs in presence of efflux pump inhibitor, CCCP and 80 to 120 ug/ml tetracycline by OD600 based analysis; format: ADME, organism-based; settings: in vivo, dose 3-50 µg/ml
[19] = tested on: Klebsiella pneumoniae; test: Hormesis activity against Klebsiella pneumoniae assessed as increase in antibiotic MIC by measuring hygromycinMIC at 3 ug/ml incubated for 12 hrs by OD600 based analysis (reference value: 12.5 ug/ml); format: ADME, organism-based; settings: in vivo, dose 3 µg/ml
[20] = Upregulation of efflux pump KmrA gene expression in Klebsiella pneumoniae at 3 ug/ml incubated for 12 hrs by transcriptome analysis; format: ADME; settings: dose 3 µg/ml
[21] = tested on: Enterobacter cloacae; test: Hormesis activity against overnight compound-treated Enterobacter cloacae assessed as increase in antibiotic MIC by measuring hygromycinMIC at 3 ug/ml incubated for 12 hrs by OD600 based analysis (reference value: 25 ug/ml); format: ADME, organism-based; settings: in vivo, dose 3 µg/ml
[22] = tested on: Enterobacter cloacae; test: Hormesis activity against overnight compound-treated Enterobacter cloacae assessed as increase in antibiotic MIC by measuring ampicillin MIC at 3 ug/ml incubated for 12 hrs by OD600 based analysis (reference value: 25 ug/ml); format: ADME, organism-based; settings: in vivo, dose 3 µg/ml
[23] = tested on: Enterobacter cloacae; test: Hormesis activity against Enterobacter cloacae assessed as increase in antibiotic MIC by measuring chloramphenicol MIC at 3 ug/ml incubated for 12 hrs by OD600 based analysis (reference value: 3.125 ug/ml); format: ADME, organism-based; settings: in vivo, dose 3 µg/ml
[24] = tested on: Klebsiella pneumoniae; test: Hormesis activity against overnight compound-treated Klebsiella pneumoniae deficient in KmrA gene expression assessed as increase in antibiotic MIC by measuring rifampicin MIC at 3 ug/ml incubated for 12 hrs by OD600 based analysis (reference value: 25 ug/ml); format: ADME, organism-based; settings: in vivo, dose 3 µg/ml
[25] = Upregulation of KmrA promoter activity in Klebsiella pneumoniae assessed as increase in beta-galactosidase activity at 3 ug/ml by LacZ based OD600 analysis relative to control; format: ADME; settings: dose 3 µg/ml
[26] = tested on: Klebsiella pneumoniae; test: Hormesis activity against Klebsiella pneumoniae assessed as increase in antibiotic MIC by measuring cefotaxime MIC at 3 ug/ml incubated for 12 hrs by OD600 based analysis (reference value: 0.39625 ug/ml); format: ADME, organism-based; settings: in vivo, dose 3 µg/ml
[27] = tested on: Klebsiella pneumoniae; test: Hormesis activity against Klebsiella pneumonia assessed as inhibition of bacterial growth by measuring shortened logarithmic growth phase at 25 to 50 ug/ml measured after 24 hrs by OD600 based analysis; format: functional, organism-based; settings: dose 25-50 µg/ml
[28] = tested on: Acinetobacter baumannii; test: Hormesis activity against Acinetobacter baumannii assessed as increase in antibiotic MIC by measuring hygromycinMIC at 3 ug/ml incubated for 12 hrs by OD600 based analysis (reference value: 125 ug/ml); format: ADME, organism-based; settings: in vivo, dose 3 µg/ml
[29] = tested on: Acinetobacter baumannii; test: Hormesis activity against overnight-compound treated Acinetobacter baumannii assessed as increase in antibiotic MIC by measuring tetracycline MIC at 3 ug/ml incubated for 12 hrs by OD600 based analysis (reference value: 240 ug/ml); format: ADME, organism-based; settings: in vivo, dose 3 µg/ml

COc1ccc2cc3[n+](cc2c1OC)CCc1cc2c(cc1-3)OCO2 [BERBERINE]
MIC [1]: 0.3962 µg/mL
MIC [2]: 12 µg/mL
MIC [3]: 50 µg/mL
MIC [4]: 0.07812 µg/mL
MIC [5]: 200 µg/mL
Activity [6]: 23%
Activity [7]: Toxic
MIC [8]: 6.25 µg/mL
MIC [9]: 6.25 µg/mL
MIC [10]: 1.5625 µg/mL
MIC [11]: 6.25 µg/mL
MIC [12]: 0.3125 µg/mL
MIC [13]: 12.5 µg/mL
Activity [14]: Toxic
MIC [15]: 0.3962 µg/mL
MIC [16]: 12.5 µg/mL
MIC [17]: 50 µg/mL
Activity [18]: Non-Toxic
MIC [19]: 12.5 µg/mL
Activity [20]: Toxic
MIC [21]: 25 µg/mL
MIC [22]: 50 µg/mL
MIC [23]: 3.125 µg/mL
MIC [24]: 25 µg/mL
fold change (FC) [25]: 2.5
MIC [26]: 0.3962 µg/mL
Activity [27]: Active
MIC [28]: 250 µg/mL
MIC [29]: 360 µg/mL
